Assay results: ChEMBL document CHEMBL5244205, “Discovery of tricyclic dipyrrolopyridine derivatives as novel JAK inhibitors” (Bioorg Med Chem, 2017)
pIC50: −log10 of the molar value.

Experiments:
[1] = Clearance in Sprague-Dawley rat at 1 mg/kg, iv measured up to 24 hrs by LC-MS/MS analysis; type: ADME, organism-based; conditions: in vivo
[2] = AUC (0 to 24 hrs) in Sprague-Dawley rat at 1 mg/kg, iv measured up to 24 hrs by LC-MS/MS analysis; type: ADME, organism-based; parameters: dose 1 mg/kg, time < 24 hrs, route iv; conditions: in vivo
[3] = Cmax in Sprague-Dawley rat at 1 mg/kg, po measured up to 24 hrs by LC-MS/MS analysis; type: ADME, organism-based; parameters: time < 24 hrs, dose 1 mg/kg, route po; conditions: in vivo
[4] = Half life in Sprague-Dawley rat at 1 mg/kg, po measured up to 24 hrs by LC-MS/MS analysis; type: ADME, organism-based; conditions: in vivo
[5] = AUC (0 to 24 hrs) in Sprague-Dawley rat at 1 mg/kg, po measured up to 24 hrs by LC-MS/MS analysis; type: ADME, organism-based; parameters: dose 1 mg/kg, time < 24 hrs, route po; conditions: in vivo
[6] = Oral availability in Sprague-Dawley rat at 1 mg/kg measured up to 24 hrs by LC-MS/MS analysis; type: ADME, organism-based; conditions: in vivo
[7] = biological target: Tyrosine-protein kinase ABL1 (Homo sapiens, UniProt P00519); assay: Inhibition of ABL (unknown origin)
[8] = biological target: Tyrosine-protein kinase BTK (Homo sapiens, UniProt Q06187); assay: Inhibition of BTK (unknown origin)
[9] = biological target: Epidermal growth factor receptor (Homo sapiens, UniProt P00533); assay: Inhibition of EGFR (unknown origin)
[10] = biological target: Insulin-like growth factor 1 receptor (Homo sapiens, UniProt P08069); assay: Inhibition of IGF1R (unknown origin)
[11] = Inhibition of SYK (unknown origin); parameters: species or system Homo sapiens
Angiopoietin-1 receptor = Angiopoietin-1 receptor (Homo sapiens, UniProt Q02763); assay: Inhibition of TIE2 (unknown origin)
[12] = biological target: High affinity nerve growth factor receptor (Homo sapiens, UniProt P04629); assay: Inhibition of TRKA (unknown origin)
[13] = biological target: Tyrosine-protein kinase ZAP-70 (Homo sapiens, UniProt P43403); assay: Inhibition of ZAP70 (unknown origin)
[14] = biological target: RAC-alpha serine/threonine-protein kinase (Homo sapiens, UniProt P31749); assay: Inhibition of AKT1 (unknown origin)
Aurora kinase C = Aurora kinase C (Homo sapiens, UniProt Q9UQB9); assay: Inhibition of AURC (unknown origin)
[15] = biological target: Bone morphogenetic protein receptor type-1A (Homo sapiens, UniProt P36894); assay: Inhibition of BMPR1A (unknown origin)
[16] = biological target: Calcium/calmodulin-dependent protein kinase type II subunit alpha (Homo sapiens, UniProt Q9UQM7); assay: Inhibition of CAMK2alpha (unknown origin)
[17] = biological target: Cyclin-dependent kinase 2 (Homo sapiens, UniProt P24941); assay: Inhibition of CDK2 (unknown origin)
[18] = biological target: Serine/threonine-protein kinase Chk1 (Homo sapiens, UniProt O14757); assay: Inhibition of CHK1 (unknown origin)
[19] = biological target: Casein kinase I isoform delta (Homo sapiens, UniProt P48730); assay: Inhibition of CHKdelta (unknown origin)
[20] = biological target: Glycogen synthase kinase-3 beta (Homo sapiens, UniProt P49841); assay: Inhibition of GSK3beta (unknown origin)
[21] = biological target: Inhibitor of nuclear factor kappa-B kinase subunit beta (Homo sapiens, UniProt O14920); assay: Inhibition of IKKB (unknown origin)
[22] = biological target: Mitogen-activated protein kinase 8 (Homo sapiens, UniProt P45983); assay: Inhibition of JNK1 (unknown origin)
[23] = biological target: Mitogen-activated protein kinase kinase kinase 1 (Homo sapiens, UniProt Q13233); assay: Inhibition of MAP3K1 (unknown origin)
[24] = biological target: MAP kinase-activated protein kinase 2 (Homo sapiens, UniProt P49137); assay: Inhibition of MAPKAPK2 (unknown origin)
[25] = biological target: Mitogen-activated protein kinase 11 (Homo sapiens, UniProt Q15759); assay: Inhibition of P38beta (unknown origin)
Rattus norvegicus = assay: Immunosuppressive activity in Lewis rat transplanted with ACI rat cardiac tissue assessed as reduction in graft rejection by measuring mean survival days at 0.5 mg/kg, po administered for 14 consecutive days co-treated with tacrolimus (reference value: 10 days); type: functional; conditions: time 14 day
[26] = biological target: T1, Tyrosine-protein kinase JAK3 (Homo sapiens, UniProt P52333)
T1 sequence (P52333 whole entry): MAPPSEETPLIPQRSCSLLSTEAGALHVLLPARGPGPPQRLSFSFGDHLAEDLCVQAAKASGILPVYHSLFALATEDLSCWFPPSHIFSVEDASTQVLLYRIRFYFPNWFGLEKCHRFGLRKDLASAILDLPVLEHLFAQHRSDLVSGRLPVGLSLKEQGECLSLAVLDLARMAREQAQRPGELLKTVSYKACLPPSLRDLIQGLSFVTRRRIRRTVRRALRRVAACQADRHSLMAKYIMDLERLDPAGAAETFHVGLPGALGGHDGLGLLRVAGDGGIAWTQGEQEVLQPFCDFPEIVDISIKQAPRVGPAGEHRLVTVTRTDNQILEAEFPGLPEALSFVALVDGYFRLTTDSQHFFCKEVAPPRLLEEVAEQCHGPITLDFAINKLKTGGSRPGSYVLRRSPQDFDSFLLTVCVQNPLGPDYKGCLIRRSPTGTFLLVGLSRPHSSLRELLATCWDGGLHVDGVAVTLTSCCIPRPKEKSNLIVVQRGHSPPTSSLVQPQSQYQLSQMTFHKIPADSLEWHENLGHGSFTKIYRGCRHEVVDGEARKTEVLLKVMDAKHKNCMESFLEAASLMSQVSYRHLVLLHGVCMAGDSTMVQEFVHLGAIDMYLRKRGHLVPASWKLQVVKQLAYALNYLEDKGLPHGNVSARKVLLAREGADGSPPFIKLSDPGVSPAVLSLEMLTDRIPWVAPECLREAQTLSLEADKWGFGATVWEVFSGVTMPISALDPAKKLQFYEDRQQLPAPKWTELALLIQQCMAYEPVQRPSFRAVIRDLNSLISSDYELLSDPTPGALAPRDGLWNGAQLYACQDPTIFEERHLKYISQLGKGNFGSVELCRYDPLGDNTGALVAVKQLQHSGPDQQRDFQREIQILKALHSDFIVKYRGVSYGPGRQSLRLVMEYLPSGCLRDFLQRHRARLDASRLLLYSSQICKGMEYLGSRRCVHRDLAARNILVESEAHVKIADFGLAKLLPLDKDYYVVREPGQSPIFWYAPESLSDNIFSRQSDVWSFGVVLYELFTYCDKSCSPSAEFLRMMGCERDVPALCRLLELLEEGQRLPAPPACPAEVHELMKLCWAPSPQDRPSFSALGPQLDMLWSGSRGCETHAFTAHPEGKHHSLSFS
Description: Inhibition of human JAK3 kinase domain using biotin-Lyn-substrate-2 as substrate incubated for 1 hr by ELISA

[27] = biological target: Tyrosine-protein kinase JAK1 (Homo sapiens, UniProt P23458)
Description: Inhibition of human JAK1 kinase domain using biotin-Lyn-substrate-2 as substrate incubated for 1 hr by ELISA

Cytochrome P450 3A4 = Cytochrome P450 3A4 (Homo sapiens, UniProt P08684); conditions: microsomes, 20 min, 5 µM
cells = conditions: Rattus norvegicus, Lewis, Splenocyte, 72 h
Description: Immunosuppressive activity in Lewis rat splenocytes assessed as inhibition of concanavalin A-induced IL-2 receptor expression incubated for 3 days by alamarBlue assay

Sequence of Inhibitor of nuclear factor kappa-B kinase subunit beta (O14920 whole entry): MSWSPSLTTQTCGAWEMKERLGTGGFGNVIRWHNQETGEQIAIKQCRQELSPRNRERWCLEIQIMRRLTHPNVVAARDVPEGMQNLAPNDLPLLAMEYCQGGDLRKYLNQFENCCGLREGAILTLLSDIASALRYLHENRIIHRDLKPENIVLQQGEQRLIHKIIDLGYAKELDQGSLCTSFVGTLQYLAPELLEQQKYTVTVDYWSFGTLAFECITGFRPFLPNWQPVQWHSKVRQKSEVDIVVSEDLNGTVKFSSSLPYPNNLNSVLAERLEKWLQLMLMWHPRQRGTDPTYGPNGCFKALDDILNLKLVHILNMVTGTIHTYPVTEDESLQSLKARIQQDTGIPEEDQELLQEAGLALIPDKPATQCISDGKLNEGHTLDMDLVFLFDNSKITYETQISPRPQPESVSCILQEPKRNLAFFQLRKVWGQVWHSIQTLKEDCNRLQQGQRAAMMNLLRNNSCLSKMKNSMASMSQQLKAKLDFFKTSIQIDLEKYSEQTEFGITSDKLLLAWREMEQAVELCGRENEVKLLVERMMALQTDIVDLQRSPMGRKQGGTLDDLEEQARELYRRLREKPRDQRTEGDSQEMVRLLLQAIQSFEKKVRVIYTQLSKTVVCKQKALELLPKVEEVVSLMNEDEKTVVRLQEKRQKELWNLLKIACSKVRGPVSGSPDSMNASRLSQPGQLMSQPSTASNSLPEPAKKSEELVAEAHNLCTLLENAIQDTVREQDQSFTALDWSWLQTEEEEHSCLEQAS
Sequence of Tyrosine-protein kinase ZAP-70 (P43403 whole entry): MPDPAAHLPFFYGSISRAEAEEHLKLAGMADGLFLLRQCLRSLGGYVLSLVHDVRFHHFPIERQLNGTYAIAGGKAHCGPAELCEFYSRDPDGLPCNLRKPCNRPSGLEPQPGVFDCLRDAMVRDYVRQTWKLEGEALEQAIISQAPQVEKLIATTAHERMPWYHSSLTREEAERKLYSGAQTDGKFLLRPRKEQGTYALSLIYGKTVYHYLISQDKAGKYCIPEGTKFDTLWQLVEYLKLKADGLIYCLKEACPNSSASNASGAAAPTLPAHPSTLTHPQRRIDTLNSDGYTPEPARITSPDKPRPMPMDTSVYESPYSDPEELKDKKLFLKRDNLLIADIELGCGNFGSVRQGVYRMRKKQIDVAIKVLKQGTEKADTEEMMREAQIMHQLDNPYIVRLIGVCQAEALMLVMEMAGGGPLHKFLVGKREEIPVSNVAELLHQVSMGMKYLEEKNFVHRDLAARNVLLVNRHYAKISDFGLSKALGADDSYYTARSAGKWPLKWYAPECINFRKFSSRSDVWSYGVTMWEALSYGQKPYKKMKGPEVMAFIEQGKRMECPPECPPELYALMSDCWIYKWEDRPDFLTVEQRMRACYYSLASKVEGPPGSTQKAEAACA
Sequence of Serine/threonine-protein kinase Chk1 (O14757 whole entry, canonical isoform): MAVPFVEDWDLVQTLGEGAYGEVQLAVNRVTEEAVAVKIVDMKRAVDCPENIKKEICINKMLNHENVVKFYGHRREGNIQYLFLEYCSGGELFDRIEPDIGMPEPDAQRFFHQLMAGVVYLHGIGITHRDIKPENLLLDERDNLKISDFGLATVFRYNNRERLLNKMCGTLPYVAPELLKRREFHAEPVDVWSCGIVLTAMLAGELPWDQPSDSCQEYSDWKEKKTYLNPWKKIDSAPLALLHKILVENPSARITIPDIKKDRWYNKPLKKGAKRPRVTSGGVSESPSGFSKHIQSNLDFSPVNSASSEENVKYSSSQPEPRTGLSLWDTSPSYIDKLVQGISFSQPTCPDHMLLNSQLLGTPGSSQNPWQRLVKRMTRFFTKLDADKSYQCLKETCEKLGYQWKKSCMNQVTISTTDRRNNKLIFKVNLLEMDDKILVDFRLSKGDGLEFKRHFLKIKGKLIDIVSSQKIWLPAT
Sequence of Mitogen-activated protein kinase 8 (P45983 whole entry): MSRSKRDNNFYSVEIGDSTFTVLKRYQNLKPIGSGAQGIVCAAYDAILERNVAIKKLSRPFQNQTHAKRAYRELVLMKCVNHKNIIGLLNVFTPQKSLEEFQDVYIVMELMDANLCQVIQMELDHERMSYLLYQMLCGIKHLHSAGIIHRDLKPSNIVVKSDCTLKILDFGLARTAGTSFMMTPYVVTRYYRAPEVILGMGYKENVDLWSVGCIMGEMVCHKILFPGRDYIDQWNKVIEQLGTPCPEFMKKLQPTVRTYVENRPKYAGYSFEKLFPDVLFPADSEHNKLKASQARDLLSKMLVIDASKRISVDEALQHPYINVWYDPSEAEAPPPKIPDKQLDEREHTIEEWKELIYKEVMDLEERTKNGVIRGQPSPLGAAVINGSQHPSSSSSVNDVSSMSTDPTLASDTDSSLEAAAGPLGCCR
Sequence of Insulin-like growth factor 1 receptor (P08069 31-736 limits assumed): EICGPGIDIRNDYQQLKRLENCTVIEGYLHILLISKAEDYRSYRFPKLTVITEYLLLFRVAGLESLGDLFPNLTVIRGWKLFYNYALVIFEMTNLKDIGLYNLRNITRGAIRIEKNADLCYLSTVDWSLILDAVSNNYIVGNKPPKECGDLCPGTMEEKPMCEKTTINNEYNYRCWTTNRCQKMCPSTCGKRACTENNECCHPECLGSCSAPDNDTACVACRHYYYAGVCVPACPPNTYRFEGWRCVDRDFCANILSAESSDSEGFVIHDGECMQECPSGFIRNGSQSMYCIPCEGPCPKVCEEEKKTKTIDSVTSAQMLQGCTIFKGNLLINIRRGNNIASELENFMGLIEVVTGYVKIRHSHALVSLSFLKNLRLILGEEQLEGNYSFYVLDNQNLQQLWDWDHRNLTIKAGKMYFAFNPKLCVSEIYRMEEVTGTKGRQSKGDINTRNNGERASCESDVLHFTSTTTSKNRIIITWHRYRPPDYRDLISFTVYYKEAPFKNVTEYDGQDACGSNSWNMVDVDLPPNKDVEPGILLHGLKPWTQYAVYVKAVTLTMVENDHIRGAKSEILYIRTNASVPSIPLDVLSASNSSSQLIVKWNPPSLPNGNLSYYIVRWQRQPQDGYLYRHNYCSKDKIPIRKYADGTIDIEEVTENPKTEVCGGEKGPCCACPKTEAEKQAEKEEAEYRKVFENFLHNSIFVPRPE
Sequence of Insulin-like growth factor 1 receptor (P08069 741-1367 limits assumed): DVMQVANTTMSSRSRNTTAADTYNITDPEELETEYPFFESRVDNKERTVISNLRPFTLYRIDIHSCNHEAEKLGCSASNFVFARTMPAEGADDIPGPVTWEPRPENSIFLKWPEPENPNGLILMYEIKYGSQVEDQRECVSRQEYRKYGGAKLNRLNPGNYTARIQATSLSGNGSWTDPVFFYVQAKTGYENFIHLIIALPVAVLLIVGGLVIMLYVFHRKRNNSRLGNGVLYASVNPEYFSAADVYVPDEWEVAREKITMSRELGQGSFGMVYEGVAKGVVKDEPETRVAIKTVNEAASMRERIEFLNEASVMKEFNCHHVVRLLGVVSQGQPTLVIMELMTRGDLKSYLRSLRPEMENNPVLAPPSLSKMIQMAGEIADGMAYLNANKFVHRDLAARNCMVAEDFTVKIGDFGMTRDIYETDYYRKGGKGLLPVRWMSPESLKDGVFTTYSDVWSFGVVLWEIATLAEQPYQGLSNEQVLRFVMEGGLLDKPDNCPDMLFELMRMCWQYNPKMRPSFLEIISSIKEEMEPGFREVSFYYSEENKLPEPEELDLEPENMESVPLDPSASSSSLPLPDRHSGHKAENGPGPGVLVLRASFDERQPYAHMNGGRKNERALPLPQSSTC
Sequence of Tyrosine-protein kinase JAK1 (P23458 whole entry): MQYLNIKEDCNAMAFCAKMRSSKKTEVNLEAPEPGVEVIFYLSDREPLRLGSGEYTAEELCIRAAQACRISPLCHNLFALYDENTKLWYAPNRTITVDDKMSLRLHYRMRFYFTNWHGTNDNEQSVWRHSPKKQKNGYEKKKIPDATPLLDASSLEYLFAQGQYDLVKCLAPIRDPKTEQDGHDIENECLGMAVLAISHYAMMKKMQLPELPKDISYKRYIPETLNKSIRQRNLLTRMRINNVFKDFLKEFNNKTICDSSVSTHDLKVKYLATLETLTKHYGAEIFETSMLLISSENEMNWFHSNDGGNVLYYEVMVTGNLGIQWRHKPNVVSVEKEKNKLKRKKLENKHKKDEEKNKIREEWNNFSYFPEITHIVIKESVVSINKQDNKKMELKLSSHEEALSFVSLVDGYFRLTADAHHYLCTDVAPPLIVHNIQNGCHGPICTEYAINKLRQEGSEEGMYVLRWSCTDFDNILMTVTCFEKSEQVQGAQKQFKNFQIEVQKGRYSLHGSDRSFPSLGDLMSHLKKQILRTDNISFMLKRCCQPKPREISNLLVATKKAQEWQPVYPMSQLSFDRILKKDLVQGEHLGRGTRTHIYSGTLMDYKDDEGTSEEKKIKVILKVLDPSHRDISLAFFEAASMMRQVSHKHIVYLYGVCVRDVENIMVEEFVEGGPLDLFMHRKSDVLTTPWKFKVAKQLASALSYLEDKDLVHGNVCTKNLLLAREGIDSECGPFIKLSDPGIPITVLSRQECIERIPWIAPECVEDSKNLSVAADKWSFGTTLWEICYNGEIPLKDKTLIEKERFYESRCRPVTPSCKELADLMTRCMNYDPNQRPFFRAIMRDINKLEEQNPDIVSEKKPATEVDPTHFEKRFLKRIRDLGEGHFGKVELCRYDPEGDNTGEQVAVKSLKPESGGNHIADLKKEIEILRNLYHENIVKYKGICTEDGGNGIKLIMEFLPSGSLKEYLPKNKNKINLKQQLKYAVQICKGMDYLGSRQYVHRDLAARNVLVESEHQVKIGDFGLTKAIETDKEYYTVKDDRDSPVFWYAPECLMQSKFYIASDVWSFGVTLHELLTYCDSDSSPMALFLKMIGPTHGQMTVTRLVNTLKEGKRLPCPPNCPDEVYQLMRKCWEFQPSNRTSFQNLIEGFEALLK

**Q.** With `C[C@@H]1CCN(C(=O)CC#N)C[C@@H]1n1ccc2cnc3[nH]ccc3c21` as the compound, how does the clearance [1] read?
**A.** 18.8 mL/min/kg

**Q.** What about the AUC(0-t) at 24 h [2] of the same compound?
**A.** 889 ng·h/mL

**Q.** And the Cmax [3]?
**A.** 260 ng/mL

**Q.** And the half-life [4]?
**A.** 2.58 h

**Q.** And the AUC(0-t) at 24 h [5]?
**A.** 917 ng·h/mL

**Q.** And the bioavailability [6]?
**A.** 103%

**Q.** And the pIC50 [7]?
**A.** < 6.00

**Q.** And the pIC50 [8]?
**A.** < 6.00

**Q.** And the pIC50 [9]?
**A.** < 6.00

**Q.** And the pIC50 [10]?
**A.** < 6.00

**Q.** What about the pIC50 [11] of the same compound?
**A.** < 6.00

**Q.** What about the pIC50 (Angiopoietin-1 receptor) of the same compound?
**A.** < 6.00

**Q.** And the pIC50 [12]?
**A.** < 6.00

**Q.** And the pIC50 [13]?
**A.** < 6.00

**Q.** What about the pIC50 [14] of the same compound?
**A.** < 6.00

**Q.** What about the pIC50 (Aurora kinase C) of the same compound?
**A.** < 6.00

**Q.** What about the pIC50 [15] of the same compound?
**A.** < 6.00

**Q.** What about the pIC50 [16] of the same compound?
**A.** < 6.00

**Q.** What about the pIC50 [17] of the same compound?
**A.** < 6.00

**Q.** What about the pIC50 [18] of the same compound?
**A.** < 6.00

**Q.** What about the pIC50 [19] of the same compound?
**A.** < 6.00

**Q.** And the pIC50 [20]?
**A.** < 6.00

**Q.** What about the pIC50 [21] of the same compound?
**A.** < 6.00

**Q.** What about the pIC50 [22] of the same compound?
**A.** < 6.00

**Q.** And the pIC50 [23]?
**A.** < 6.00

**Q.** And the pIC50 [24]?
**A.** < 6.00

**Q.** What about the pIC50 [25] of the same compound?
**A.** < 6.00

**Q.** And the MST (Rattus norvegicus)?
**A.** 21 days

**Q.** And the pIC50 [26]?
**A.** 9.85

**Q.** And the pIC50 [27]?
**A.** 9.34

**Q.** And the TDI (Cytochrome P450 3A4)?
**A.** 89%

**Q.** And the pIC50 (cells)?
**A.** 8.37
